Assay results reported in PubChem BioAssay AID2060883 (Molecular Pharmacology Branch, DTP, NCI, 2025).

System: 843782-103-R-J1-PDC complex spheroid viability
Test: Anticancer human tumor 843782-103-R-J1-PDC patient-derived lung adenocarcinoma cell line growth inhibition [RAS]
Details: for IC50: curve of first compound; for viability, T/C: stronger effect = lower value
Description: RAS pathway inhibitors in Combinations in Complex Spheroids
A high-throughput screen of multi-cell type tumor spheroids was designed to identify active combinations of RAS pathway inhibitors and targeted small molecules. Complex spheroids include a stromal component modeled by human endothelial cells (HUVEC) and fibroblasts modeled by human mesenchymal stem cells (MSCs). The concentration ranges selected for each drug and investigational agent were based upon clinically achievable concentrations if the clinical Cmax of the agent was known.
Compounds. The drugs and investigational agents: abemaciclib (NSC768073), cobimetinib (NSC768068), divarasib (GDC6063, NSC841802), docetaxel (NSC628503), GDC-1971 (RLY-1971, NSC841576), gemcitabine (NSC613327), inavolisib (NSC800729), ipatasertib (NSC767898), KB-0742 (NSC834161), MRTX-1133 (NSC836407), osimertinib (NSC779217), RMC-4630 (NSC839698), RMC-6236 (NSC851965), RMC-6291 (NSC852671), Ro-3306 (NSC812927), sapanisertib (NSC764658), SN-38 (NSC673596), staurosporine (NSC755774), SY5609 (NSC837396), and tovorafenib (DAY101, NSC766906), were obtained from the National Cancer Institute (NCI) Developmental Therapeutics Program Chemical Repository. The FDA-approved anticancer drug set is available from the NCI Developmental Therapeutics Program. […] The stock solutions were prepared in dimethyl sulfoxide (DMSO, Sigma-Aldrich, St. Louis, MO, cat. D2650) at 800-fold the tested concentration and stored at -70 degrees C prior to their use. All drugs and investigational agents were tested over a range starting from a high concentration at or near the clinical Cmax and decreasing in half-log increments. If the clinical Cmax for an agent had not been determined, the highest concentration tested was 10 microM.
Cell Culture. All cells were maintained in an incubator at 37 degrees C and 5% CO2 with 95% humidity. The PDC lines were cultured according to standard operating procedures established by the NCI PDMR. All PDCs were thawed and cultured in Matrigel-coated flasks prepared with a working solution of 1X Ham's F-12 nutrient mix, without supplementation (Invitrogen, Waltham, MA, cat. 11765054), 100 U/mL penicillin-streptomycin (Invitrogen, cat. 15140122), and 2.5% Matrigel (Corning Inc., Corning, NY, cat. 354248) for the first three passages. The 362531-283-R-J2-PDC and 782815-120-R-J1-PDC lines were cultured in 6C/Colon 1B media, which includes advanced DMEM/F-12 (Thermo Fisher Scientific, cat. 12634028), 10 mM HEPES (Thermo Fisher Scientific, cat. 15630080), 1X GlutaMAX supplement (Thermo Fisher Scientific, cat. 35050061), 0.1 mg/mL primocin (InvivoGen, San Diego, CA, cat. ant-pm-2), 10% defined fetal bovine serum, heat inactivated (HyClone Laboratories Inc., Logan, UT, cat. SH30070.03HI), 50% L-WRN conditioned media (ATCC, cat. CRL-3276), 1.25 mM N-Acetyl-L-cysteine (Sigma-Aldrich, cat. A9165), 10 mM nicotinamide (Sigma-Aldrich, cat. N0636), 1X B-27 supplement (Thermo Fisher Scientific, cat. 17504044), 1X N-2 supplement (Thermo Fisher Scientific, cat. 17502048), 50 ng/mL human EGF (Thermo Fisher Scientific, cat. PHG0311), and 10 microM Y-27632 dihydrochloride (Tocris Bioscience, cat. 1254). The K12877-001-R-J1-PDC line was cultured in 6I media, which includes all 6C/Colon 1B media plus 10 ng/mL human FGF-10 (PeproTech, cat. 100-26), 1 ng/mL human FGF-2 (PeproTech, cat. 100-18B), 1 µM prostaglandin E2 (Tocris Bioscience, cat. 2296), […] hydrocortisone (Sigma-Aldrich, cat. H4001), and […] bovine insulin (Sigma-Aldrich, cat. I6634). The K86415-001-R-J1-PDC line was cultured in 6D media, which includes all 6C/Colon 1B media components minus the L-WRN conditioned media. The 485176-168-R4-J1-PDC was cultured in PANC media, which includes all 6C/Colon 1B media plus 100 ng/mL human FGF-10 (PeproTech, cat. 100-26), 500 nM SB-431542 (Selleckchem, cat. S1067), and 10 nM gastrin (Tocris Bioscience, cat. 3006). […]
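Also: viability read after seven days of compound exposure.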

In the case of `C=CC(=O)N1CCN(c2nc(OCC3CCCN3C)nc3c(F)c(-c4nc(N)cc(C)c4C(F)(F)F)c(Cl)cc23)C(C)C1` (configuration not stated) + CCn1c(-c2cc(N3CCN(C)CC3)cnc2C(C)OC)c2c3cc(ccc31)-c1csc(n1)CC(NC(=O)C1CC1C)C(=O)N1CCCC(N1)C(=O)OCC(C)(C)C2, the IC50 (second compound 0.000949 µM) is reported as > 1000 nM, the IC50 (second compound 0.003 µM) is reported as > 1000 nM and the IC50 (second compound 0.00949 µM) is reported as < 3.16 nM. For the same compound, the IC50 (second compound 0.03 µM) was < 3.16 nM, the IC50 (second compound 0.0949 µM) was < 3.16 nM and the IC50 (second compound 0.3 µM) was < 3.16 nM. For the same compound, the viability, T/C (second compound 0.000949 µM, first compound 0.00316 µM) was 64.2%, the viability, T/C (second compound 0.000949 µM, first compound 0.01 µM) was 64.9% and the viability, T/C (second compound 0.000949 µM, first compound 0.0316 µM) was 62.9%. The viability, T/C (second compound 0.000949 µM, first compound 0.1 µM) was 66.8%, the viability, T/C (second compound 0.000949 µM, first compound 0.316 µM) was 71.8% and the viability, T/C (second compound 0.000949 µM, first compound 1 µM) was 67.1%. The viability, T/C (second compound 0.003 µM, first compound 0.00316 µM) was 57.2%, the viability, T/C (second compound 0.003 µM, first compound 0.01 µM) was 56.5% and the viability, T/C (second compound 0.003 µM, first compound 0.0316 µM) was 55%. It also gave a viability, T/C (second compound 0.003 µM, first compound 0.1 µM) of 55.4%, a viability, T/C (second compound 0.003 µM, first compound 0.316 µM) of 55.2% and a viability, T/C (second compound 0.003 µM, first compound 1 µM) of 60.8%. The viability, T/C (second compound 0.00949 µM, first compound 0.00316 µM) was 33.6%, the viability, T/C (second compound 0.00949 µM, first compound 0.01 µM) was 38.1% and the viability, T/C (second compound 0.00949 µM, first compound 0.0316 µM) was 36.3%. The viability, T/C (second compound 0.00949 µM, first compound 0.1 µM) was 37.1%, the viability, T/C (second compound 0.00949 µM, first compound 0.316 µM) was 37% and the viability, T/C (second compound 0.00949 µM, first compound 1 µM) was 35.8%. For the same compound, the viability, T/C (second compound 0.03 µM, first compound 0.00316 µM) was 20.3%, the viability, T/C (second compound 0.03 µM, first compound 0.01 µM) was 23.1% and the viability, T/C (second compound 0.03 µM, first compound 0.0316 µM) was 19.3%. For the same compound, the viability, T/C (second compound 0.03 µM, first compound 0.1 µM) was 23.8%, the viability, T/C (second compound 0.03 µM, first compound 0.316 µM) was 22.7% and the viability, T/C (second compound 0.03 µM, first compound 1 µM) was 21.6%. It also gave a viability, T/C (second compound 0.0949 µM, first compound 0.00316 µM) of 15.4%, a viability, T/C (second compound 0.0949 µM, first compound 0.01 µM) of 13.7% and a viability, T/C (second compound 0.0949 µM, first compound 0.0316 µM) of 16.6%. For the same compound, the viability, T/C (second compound 0.0949 µM, first compound 0.1 µM) was 20%, the viability, T/C (second compound 0.0949 µM, first compound 0.316 µM) was 17.4% and the viability, T/C (second compound 0.0949 µM, first compound 1 µM) was 16.4%. The viability, T/C (second compound 0.3 µM, first compound 0.00316 µM) was 14.6%, the viability, T/C (second compound 0.3 µM, first compound 0.01 µM) was 14.5% and the viability, T/C (second compound 0.3 µM, first compound 0.0316 µM) was 14.8%. The viability, T/C (second compound 0.3 µM, first compound 0.1 µM) was 14.9%, the viability, T/C (second compound 0.3 µM, first compound 0.316 µM) was 14.5% and the viability, T/C (second compound 0.3 µM, first compound 1 µM) was 13.4%.
